Assay in all cases: relative viability (nuclei count vs DMSO), 5 days (fraction); higher = more cells survive
Compound in the assay “Tanzisertib + AZD7762”: O[C@H]1CC[C@H](Nc2ncc3nc(Nc4c(F)cc(F)cc4F)n([C@H]4CCOC4)c3n2)CC1 [Tanzisertib] + NC(=O)Nc1cc(-c2cccc(F)c2)sc1C(=O)N[C@H]1CCCNC1 [AZD7762] (partner 0.2 µM)
The gist of the method:
(§1)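 For relative viability, nuclei counts in treated wells were divided by those in vehicle wells. Lung cancer cell lines had been pin-tool dosed in 1536-well plates the day after seeding and cultured for 5 days, then fixed and stained in one step (final 0.05% Triton X-100, 1% formaldehyde, 1 ug/ml Hoechst) and imaged at 4×. Doses were one drug alone or a fixed anchor-drug dose plus five library-drug doses (not always all listed) in √10 steps, and values are duplicate-plate medians.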

Compound in assay [1]: C[C@@H](N)c1ccc(C(=O)Nc2ccnc3[nH]ccc23)cc1 + CC(=O)Nc1cccc(-n2c(=O)n(C3CC3)c(=O)c3c(Nc4ccc(I)cc4F)n(C)c(=O)c(C)c32)c1 [Trametinib] (partner 0.02 µM)
The procedure, abridged: as §1

Compound in the assay “Tanzisertib + Olaparib”: O[C@H]1CC[C@H](Nc2ncc3nc(Nc4c(F)cc(F)cc4F)n([C@H]4CCOC4)c3n2)CC1 [Tanzisertib] + O=C(c1cc(Cc2n[nH]c(=O)c3ccccc23)ccc1F)N1CCN(C(=O)C2CC2)CC1 [Olaparib] (partner 8 µM)
The gist of the method: as §1

Compound in assay [2]: C1CNCCC1C2=CC(=NN2)C3=CC=NC=C3 + CC(=O)Nc1cccc(-n2c(=O)n(C3CC3)c(=O)c3c(Nc4ccc(I)cc4F)n(C)c(=O)c(C)c32)c1 [Trametinib] (partner 0.02 µM)
The gist of the method: as §1

With PC-14, the relative viability in the assay with Tanzisertib + AZD7762 (first compound 0.08 µM) worked out at 0.476; with Tanzisertib + AZD7762 (first compound 0.253 µM), 0.531; in the assay with Tanzisertib + AZD7762 (first compound 0.8 µM), 0.367; with Tanzisertib + AZD7762 (first compound 2.53 µM), 0.386; with Tanzisertib + AZD7762 (first compound 8 µM), 0.213; in assay [1] (first compound 0.04 µM), 0.736. Further, the relative viability in assay [1] (first compound 0.1265 µM) is 0.656; in assay [1] (first compound 0.4 µM), 0.497; in assay [1] (first compound 4 µM), 0.431; with Tanzisertib + Olaparib (first compound 0.08 µM), 0.343; with Tanzisertib + Olaparib (first compound 0.253 µM), 0.228; with Tanzisertib + Olaparib (first compound 0.8 µM) it was 0.402. The relative viability is 0.271 with Tanzisertib + Olaparib (first compound 2.53 µM); 0.246 with Tanzisertib + Olaparib (first compound 8 µM); 0.64 in assay [2] (first compound 0.08 µM); 0.761 in assay [2] (first compound 0.8 µM); 0.903 in assay [2] (first compound 2.53 µM); 0.763 in assay [2] (first compound 8 µM).
For the cell line RERF-LC-KJ, the relative viability in the assay with Tanzisertib + AZD7762 (first compound 0.08 µM) is 0.987; with Tanzisertib + AZD7762 (first compound 0.253 µM) it was 1.02; in the assay with Tanzisertib + AZD7762 (first compound 0.8 µM), 0.904; in the assay with Tanzisertib + AZD7762 (first compound 2.53 µM) it was 0.93; with Tanzisertib + AZD7762 (first compound 8 µM), 0.571; in assay [1] (first compound 0.04 µM) it was 0.902. Also, the relative viability in assay [1] (first compound 0.1265 µM) turned out to be 0.972; in assay [1] (first compound 0.4 µM), 0.971; in assay [1] (first compound 1.265 µM) it was 0.96; in assay [1] (first compound 4 µM) it was 0.873; in the assay with Tanzisertib + Olaparib (first compound 0.08 µM) it was 0.997; with Tanzisertib + Olaparib (first compound 0.253 µM), 0.925. Also, the relative viability amounted to 0.942 in the assay with Tanzisertib + Olaparib (first compound 0.8 µM); 0.94 in the assay with Tanzisertib + Olaparib (first compound 2.53 µM); 0.912 in the assay with Tanzisertib + Olaparib (first compound 8 µM); 0.837 in assay [2] (first compound 0.08 µM); 0.83 in assay [2] (first compound 0.8 µM); 0.966 in assay [2] (first compound 2.53 µM). Besides, the relative viability in assay [2] (first compound 8 µM) was 0.858.
For the cell line SW 900, the relative viability amounted to 0.646 with Tanzisertib + AZD7762 (first compound 0.253 µM); 0.603 with Tanzisertib + AZD7762 (first compound 0.8 µM); 0.727 with Tanzisertib + AZD7762 (first compound 2.53 µM); 0.423 in the assay with Tanzisertib + AZD7762 (first compound 8 µM); 0.888 in assay [1] (first compound 0.04 µM); 0.861 in assay [1] (first compound 0.1265 µM). Moreover, the relative viability in assay [1] (first compound 0.4 µM) turned out to be 1.04; in assay [1] (first compound 1.265 µM) it was 1.14; in assay [1] (first compound 4 µM), 0.993; in the assay with Tanzisertib + Olaparib (first compound 0.253 µM), 0.82; in the assay with Tanzisertib + Olaparib (first compound 0.8 µM), 0.963; in the assay with Tanzisertib + Olaparib (first compound 2.53 µM), 0.782. Besides, the relative viability with Tanzisertib + Olaparib (first compound 8 µM) stood at 0.722; in assay [2] (first compound 0.08 µM) it was 0.751; in assay [2] (first compound 2.53 µM), 0.901; in assay [2] (first compound 8 µM), 0.836.

Source of the values: the supplement of paper PMC10307832.
